Experimental data taken from EP1900728A1 (Genecare Research Institute Co., Ltd, priority 2005, dated 2006).

The compounds below were run against T1, IκBα ubiquitinating enzyme (SCF complex: ROC1, Cullin1, Skp1, His-TrCP1; with E1, UbcH5b) (Homo sapiens, UniProt P62877+P63208+Q13616+Q9Y297) (assay: Measurement of ubiquitinating enzyme activity (IκBα ubiquitination, time-resolved fluorescence with Eu(K)-labeled ubiquitin and XL665-labeled anti-GST antibody)). Details: enzyme activity inhibition test, method (1), Table 5; read-out: EVALUATION.
T1 construct: His (polyhistidine); made in house; host or cells: insect cells (baculovirus) for the SCF complex and His-E1; E. coli for His-UBCH5b
Assay type: biochemical
Method: Method 1: Measurement of ubiquitinating enzyme activity
A recombinant vector His-UBCH5b containing a polyhistidine tag (His) and UBCH5b was prepared. E. coli was transformed with the vector, the protein was expressed, and affinity purification was carried out using Ni-NTA agarose (Qiagen). Four types of recombinant baculoviruses (ROC1, Cullin1, Skp1, and His-TrCP1) were prepared for the SCF complex protein, insect cells were infected in quadruplicate for expression, and affinity purification was carried out using Ni-NTA agarose. Recombinant baculoviruses His-IKKβ, His-E1 were prepared. The insect cells were infected with each of those for expression, and affinity purification was carried out using Ni-NTA agarose. A recombinant vector GST-IκBα was prepared by fusing glutathione-S-transferase tag (GST) and IκBα, E. coli was transformed with the vector for the protein expression, and affinity purification was carried out using glutathione sepharose (Amersham Biosciences). Genetic transformants were prepared by PCR amplification followed by recombination, all of which were based on published human-derived sequences.
Phosphorylation reaction of IκBα was performed by incubating the above-mentioned assay buffer (50 mM Tris-HCl (pH7.4), 2 mM ATP, 5 mM MgCl2, 0.5 mM DTT, 0.1% BSA) containing IκBα and IKKβ at room temperature for 1 hour. Ubiquitination reactions were carried out as follows. Compound samples at various concentrations, ubiquitin, Eu (K)-labeled ubiquitin, E1, UbcH5b, and SCF complex were added to phosphorylated IκBα, and then this was incubated at room temperature for 30 minutes. The reaction was terminated by adding EDTA, the above-mentioned revelation buffer (100 mM phosphate buffer (pH7.0), 0.5 M KF, 0.1% BSA) containing XL665-labeled anti-GST antibody was added and this was left to stand at room temperature for 2 hours. Measurements were made using ARVO-HTS (Perkin Elmer). The ratio of fluorescence intensities at 620 nm and 665 nm (Em 665 nm/Em 620 nm x 10,000) with excitation light at 337 nm was measured.
The ubiquitination level without the addition of a compound sample was used as the control value, and the level in the absence of SCF complex was used as the blank value for the assays. Inhibitory activities of the compounds were indicated as % inhibition = 100 - (value with a compound sample added - blank value) / (control value - blank value) x 100. IC50 was indicated as the concentration of the compound showing 50% inhibition. Eu (K)-labeled ubiquitin, XL665-labeled anti-GST antibody, and XL665-labeled anti-His antibody were purchased from CIS bio international. Costar solid black plates (96 wells) were used for the assays.

T1 sequence (Q9Y297 whole entry): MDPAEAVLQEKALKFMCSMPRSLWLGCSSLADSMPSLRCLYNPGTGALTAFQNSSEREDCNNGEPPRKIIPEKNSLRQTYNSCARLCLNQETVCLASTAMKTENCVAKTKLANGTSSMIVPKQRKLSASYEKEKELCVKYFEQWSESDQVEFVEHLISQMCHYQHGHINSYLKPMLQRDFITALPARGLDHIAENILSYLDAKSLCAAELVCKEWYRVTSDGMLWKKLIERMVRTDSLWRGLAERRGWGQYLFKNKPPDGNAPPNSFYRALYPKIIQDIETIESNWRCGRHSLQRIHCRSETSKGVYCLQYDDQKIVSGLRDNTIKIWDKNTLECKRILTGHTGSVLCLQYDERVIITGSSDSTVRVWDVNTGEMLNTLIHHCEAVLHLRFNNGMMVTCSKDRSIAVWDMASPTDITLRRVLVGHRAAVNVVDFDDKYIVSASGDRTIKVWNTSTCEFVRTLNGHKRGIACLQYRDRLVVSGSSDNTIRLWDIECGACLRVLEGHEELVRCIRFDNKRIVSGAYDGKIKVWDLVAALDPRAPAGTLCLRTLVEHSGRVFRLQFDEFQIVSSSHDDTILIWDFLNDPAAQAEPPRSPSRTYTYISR
T1 sequence (Q13616 whole entry): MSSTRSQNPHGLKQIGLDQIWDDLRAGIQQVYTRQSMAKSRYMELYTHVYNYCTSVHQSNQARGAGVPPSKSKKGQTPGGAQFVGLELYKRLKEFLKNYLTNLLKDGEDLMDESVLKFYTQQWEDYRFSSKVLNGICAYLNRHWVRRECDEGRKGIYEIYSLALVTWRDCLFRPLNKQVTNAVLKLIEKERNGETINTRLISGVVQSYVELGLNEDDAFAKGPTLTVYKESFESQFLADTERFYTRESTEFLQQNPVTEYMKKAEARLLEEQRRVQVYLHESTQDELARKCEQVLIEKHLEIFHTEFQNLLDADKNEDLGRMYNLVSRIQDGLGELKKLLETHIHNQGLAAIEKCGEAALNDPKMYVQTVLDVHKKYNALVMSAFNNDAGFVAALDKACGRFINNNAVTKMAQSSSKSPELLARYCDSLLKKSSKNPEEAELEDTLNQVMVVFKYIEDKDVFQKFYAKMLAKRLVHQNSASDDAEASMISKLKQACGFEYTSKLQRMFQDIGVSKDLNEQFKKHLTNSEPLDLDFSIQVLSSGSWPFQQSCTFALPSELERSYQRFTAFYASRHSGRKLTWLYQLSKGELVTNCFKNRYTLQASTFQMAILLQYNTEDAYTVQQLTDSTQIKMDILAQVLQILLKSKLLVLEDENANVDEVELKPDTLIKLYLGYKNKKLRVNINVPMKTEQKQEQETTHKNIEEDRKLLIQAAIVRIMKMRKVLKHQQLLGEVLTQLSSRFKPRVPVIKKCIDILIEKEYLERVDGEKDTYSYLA
T1 sequence (P63208 whole entry): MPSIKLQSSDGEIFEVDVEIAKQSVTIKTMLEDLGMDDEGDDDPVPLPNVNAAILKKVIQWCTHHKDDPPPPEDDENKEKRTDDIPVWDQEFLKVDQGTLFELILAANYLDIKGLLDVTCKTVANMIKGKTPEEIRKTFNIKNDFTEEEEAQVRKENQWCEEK
T1 sequence (P62877 whole entry): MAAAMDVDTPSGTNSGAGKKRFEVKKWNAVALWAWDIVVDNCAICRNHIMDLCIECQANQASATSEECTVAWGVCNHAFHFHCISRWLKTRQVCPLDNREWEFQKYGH

SMILES | IC50
O=C1/C(=C\c2ccc(-n3cncn3)cc2)C(C2CC2)=NN1c1ccccc1 [Compound 80] | < 40 µM
CC1=NN(c2ccc(C(=O)O)cc2)C(=O)/C1=C\c1ccc(N2CCC(CO)CC2)cc1 [Compound 426] | 10 to 20 µM
COc1cc(/C=C2\C(=O)N(c3ccc(C(=O)O)cc3)N=C2C)ccc1OCC1CCCCC1 [Compound 406] | 10 to 20 µM
O=C(O)c1ccc(N2N=C(c3cccnc3)/C(=C/c3ccc4c(c3)OCCO4)C2=O)cc1 [Compound 310] | 10 to 20 µM
CC1=NN(c2ccc(S(N)(=O)=O)cc2)C(=O)C1=Cc1cc2ccccc2n1C [Compound 142] | < 40 µM
COCC1=NN(c2ccccc2)C(=O)/C1=C\c1ccc(OCc2ccccc2)c(OC)c1 [Compound 3] | 10 to 20 µM
CCCCC1=NN(c2ccccc2)C(=O)/C1=C\c1ccc(OCc2ccccc2)c(OC)c1 [Compound 52] | < 40 µM
COc1cc(/C=C2\C(=O)N(c3ccccc3)N=C2c2cccnc2)ccc1O [Compound 60] | < 40 µM
COc1cc(/C=C2/C(=O)N(c3cccc(N)c3)N=C2C)ccc1O [Compound 198] | < 40 µM
CC1=NN(c2ccc(S(N)(=O)=O)cc2)C(=O)/C1=C\c1ccc(OS(=O)(=O)c2ccc(C(C)(C)C)cc2)cc1 [Compound 221] | 10 to 20 µM
COc1cc(C=C2C(=O)N(c3ccc(C(C)(C)C)cc3)N=C2C)ccc1O [Compound 196] | < 10 µM
CC1=NN(c2cccc(C(=O)O)c2)C(=O)/C1=C\c1ccc(-n2cccn2)cc1 [Compound 379] | < 10 µM
COc1cc(/C=C2\C(=O)N(c3ccc(C(=O)O)cc3)N=C2c2cccnc2)ccc1O [Compound 337] | 10 to 20 µM
CC1=NN(c2cccc(C(=O)O)c2)C(=O)C1=Cc1cc2ccccc2n1C [Compound 359] | < 10 µM
CC1=NN(c2ccc(C(=O)O)cc2)C(=O)C1=Cc1c[nH]c2ccc(Cl)cc12 [Compound 378] | < 10 µM
CCOC(=O)CN1N=C(C)/C(=C/c2ccc(O)c(OC)c2)C1=O [Compound 130] | 10 to 20 µM
COCCNC(=O)c1cccc(N2N=C(C)/C(=C/c3ccc4c(c3)OCCO4)C2=O)c1 [Compound 405] | < 40 µM

SMILES | IC50
CCCCC1=NN(c2ccccc2)C(=O)/C1=C\c1ccc(-n2cncn2)cc1 [Compound 59] | 10 to 20 µM
O=C1/C(=C\c2ccc(-c3ccccc3F)o2)C(c2ccoc2)=NN1c1ccccc1 [Compound 15] | < 10 µM
COCC1=NN(c2ccccc2)C(=O)/C1=C\c1ccc(CO)o1 [Compound 7] | < 40 µM
O=C1/C(=C\c2ccc(CO)o2)C(c2cccnc2)=NN1c1ccccc1 [Compound 64] | < 40 µM
COc1cc(/C=C2\C(=O)N(c3ccc(C(=O)O)cc3)N=C2c2ccncc2)ccc1O [Compound 286] | 10 to 20 µM
CC1=NN(c2cccc(C(=O)N3CCC(C(=O)O)CC3)c2)C(=O)/C1=C\c1ccc2[nH]ccc2c1 [Compound 374] | < 10 µM
CCOC(=O)c1ccc(COc2ccc(/C=C3\C(=O)N(c4cccc(C(=O)O)c4)N=C3C)cc2OC)o1 [Compound 395] | < 40 µM
CC(C)(C)OC(=O)N1CCN(C(=O)C2=NN(c3ccccc3)C(=O)/C2=C\c2ccc(-c3ccccc3F)o2)CC1 [Compound 88] | < 40 µM
O=C(O)c1ccc(N2N=C(Cc3ccccc3)/C(=C/c3ccc(N4CCCC4)cc3)C2=O)cc1 [Compound 269] | 10 to 20 µM
CC1=NN(c2cccc(C(=O)O)c2)C(=O)/C1=C\c1ccc2[nH]ccc2c1 [Compound 364] | < 10 µM
CC1=NN(c2cccc(C(=O)N3CCC(CO)CC3)c2)C(=O)/C1=C\c1ccc2[nH]ccc2c1 [Compound 371] | < 10 µM
CC1=NN(c2cccc(S(N)(=O)=O)c2)C(=O)/C1=C\c1ccc(N2CCNCC2)cc1 [Compound 184] | 10 to 20 µM
CC1=NN(c2cccc(S(N)(=O)=O)c2)C(=O)/C1=C\c1ccc(N2CCC(O)C2)cc1 (stereo not drawn) [Compound 178] | < 40 µM
CC1=NN(c2cccc(C(=O)NCC3CC3)c2)C(=O)/C1=C\c1ccc2c(c1)OCCO2 [Compound 404] | < 40 µM
COc1ccc(C2=NN(c3ccc(C(=O)O)cc3)C(=O)/C2=C\c2cccc3nccnc23)cc1OC [Compound 278] | < 40 µM
CCCCC1=NN(c2ccccc2)C(=O)/C1=C\c1ccc2c(c1)OCCO2 [Compound 98] | 10 to 20 µM

Continued, values first:

IC50 | SMILES
< 40 µM | COc1ccccc1-c1ccc(/C=C2\C(=O)N(c3cccc(C(=O)O)c3)N=C2C)o1 [Compound 487]
10 to 20 µM | O=C(O)c1ccc(N2N=C(c3cccnc3)C(=Cc3ccc4ccccc4c3)C2=O)cc1 [Compound 345]
< 40 µM | COc1ccc(C2=NN(c3ccccc3)C(=O)C2=Cc2ccc3c(c2)OCCO3)cc1 [Compound 93]
< 40 µM | NS(=O)(=O)c1ccc(N2N=C(C3CC3)/C(=C/c3ccc(-n4cncn4)cc3)C2=O)cc1 [Compound 111]
< 10 µM | CC1=NN(c2cccc(S(N)(=O)=O)c2)C(=O)/C1=C\c1c[nH]c2ccc(Cl)cc12 [Compound 147]
< 40 µM | COc1cc(C=C2C(=O)N(c3ccc(S(N)(=O)=O)cc3)N=C2C)ccc1OCC1CCCCC1 [Compound 161]
< 10 µM | CC1=NN(c2cccc(C(=O)O)c2)C(=O)/C1=C\c1ccc(N2CCC(CO)CC2)cc1 [Compound 421]
< 10 µM | CC1=NN(c2cccc(C(=O)O)c2)C(=O)/C1=C\c1cccc2[nH]ccc12 [Compound 355]
10 to 20 µM | O=C1/C(=C\c2ccc(CO)o2)C(C2CC2)=NN1c1ccccc1 [Compound 75]
< 40 µM | O=C1/C(=C\c2ccc(-n3cccn3)cc2)C(c2cccnc2)=NN1c1ccccc1 [Compound 67]
< 40 µM | COc1ccc(C2=NN(c3ccc(C(=O)O)cc3)C(=O)C2=Cc2ccc(-n3cncn3)cc2)cc1OC [Compound 343]
< 10 µM | CC1=NN(c2ccc(C(=O)N3CCC(C(=O)O)CC3)cc2)C(=O)/C1=C\c1ccc2[nH]ccc2c1 [Compound 352]
< 40 µM | COc1cc(/C=C2\C(=O)N(C)N=C2C)ccc1O [Compound 132]
< 40 µM | COC(=O)N1CCN(c2ccc(/C=C3\C(=O)N(c4ccccc4)N=C3c3ccncc3)cc2)CC1 [Compound 42]
< 40 µM | COCC1=NN(c2ccccc2)C(=O)/C1=C\c1ccc(-n2cccn2)cc1 [Compound 10]
10 to 20 µM | CC1=NN(c2ccc(C(=O)O)cc2)C(=O)/C1=C\c1cccc2nccnc12 [Compound 331]
10 to 20 µM | CC1=NN(c2ccc(C(=O)O)cc2)C(=O)/C1=C\c1ccc(S(=O)(=O)O)o1 [Compound 525]
10 to 20 µM | O=C(O)c1ccc(N2N=C(c3ccncc3)/C(=C/c3ccc(-c4ccccc4F)o3)C2=O)cc1 [Compound 341]
10 to 20 µM | COc1ccc(C2=NN(c3ccccc3)C(=O)/C2=C\c2ccc3ccccc3c2)cc1OC [Compound 97]
< 40 µM | COc1cc(/C=C2\C(=O)N(c3cccc(S(N)(=O)=O)c3)N=C2C)ccc1OCc1c(C)noc1C [Compound 153]
10 to 20 µM | O=C1/C(=C\c2ccc(-n3cccn3)cc2)C(Cc2ccccc2)=NN1c1ccccc1 [Compound 30]
10 to 20 µM | CC1=NN(c2cccc(S(N)(=O)=O)c2)C(=O)C1=Cc1cc2ccccc2n1C [Compound 141]
10 to 20 µM | CC1=NN(c2ccc(S(N)(=O)=O)cc2)C(=O)/C1=C\c1ccc(N2CCC(CO)CC2)cc1 [Compound 171]
< 40 µM | O=C1/C(=C\c2ccc(N3CCCC3)cc2)C(c2ccncc2)=NN1c1ccccc1 [Compound 45]
